According to patent US20220330549A1, “USE OF N-BENZYLBENZAMIDE-BASED COMPOUND AS HERBICIDE” (Northwest A&F University, priority 2020, published 2022):

Assays:
Assay type in all cases: in vivo
green bristlegrass [1] = assay: Field test for weed control in a corn field
How it was run: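 Post-emergence weed control was tested in a corn field following GB/T 17980.42-2000. When the corn had 2 leaves to 5 leaves after sowing, 10% emulsifiable concentrates diluted in water were sprayed at 150 g(a.i.)/ha on 20 m^2 plots, four replicates per treatment. Effects on green bristlegrass were scored on a 1-9 damage scale relative to the blank control area.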

goosegrass = assay: Field test for weed control in a corn field
How it was run: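 Weed control efficacy against goosegrass was tested in a corn field following GB/T 17980.42-2000. Compounds formulated as 10% emulsifiable concentrates were diluted in water and sprayed post-emergence at 150 g(a.i.)/ha when corn had 2 to 5 leaves, with 4 replicates of 20 m^2 plots. Herbicidal activity was rated on a 1-9 scale by damage symptoms and severity.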

Portulaca oleracea = assay: Field test for weed control in a corn field
How it was run: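 Field efficacy trial in corn following GB/T 17980.42-2000. Test compounds were prepared as 10% emulsifiable concentrates, diluted in water, and sprayed at 150 g(a.i.)/ha when corn had 2 to 5 leaves after sowing. Plots were 20 m^2 with 4 replicates per treatment. Herbicidal activity was scored on a 1-9 scale from weed damage symptoms and severity.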

Chenopodium album = assay: Field test for weed control in a corn field
How it was run: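 A corn-field efficacy trial following GB/T 17980.42-2000 tested post-emergence control of Chenopodium album. Test compounds formulated as 10% emulsifiable concentrates were diluted in water and sprayed at 150 g(a.i.)/ha when the corn had 2 leaves to 5 leaves, on 20 m^2 plots with 4 replicates. Herbicidal activity was rated on a 1-9 scale by damage symptoms and severity.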

nutgrass flatsedge = assay: Field test for weed control in a corn field
How it was run: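 A corn field efficacy trial following GB/T 17980.42-2000 assessed post-emergence control of nutgrass flatsedge. Test compounds were formulated as 10% emulsifiable concentrates, diluted in water, and sprayed at 150 g(a.i.)/ha when the corn had 2 to 5 leaves. Each treatment had 4 replicates on 20 m^2 plots. Herbicidal activity was graded on a 1-9 scale by damage symptoms and severity.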

Acalypha australis = assay: Field test for weed control in a corn field
How it was run: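 Post-emergence field trial in a corn field following GB/T 17980.42-2000. Test compounds were formulated as 10% emulsifiable concentrates, diluted in water, and sprayed at 150 g(a.i.)/ha when corn had 2 to 5 leaves, with 4 replicates on 20 m^2 plots. Mesotrione 25% oil dispersion served as the control agent. Weed control was scored on a 1-9 scale.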

Solanum nigrum = assay: Field test for weed control in a corn field
How it was run: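 Post-emergence weed control was tested in a corn field following GB/T 17980.42-2000. Compounds were made into 10% emulsifiable concentrates, diluted in water and sprayed at 150 g(a.i.)/ha when corn had 2 to 5 leaves after sowing, in 20 m^2 plots with 4 replicates. Effects on Solanum nigrum were graded on a 1-9 scale relative to the blank control area.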

Digitaria sanguinalis [2] = assay: Field test for weed control in a corn field
How it was run: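 Field trial in a corn field following GB/T 17980.42-2000. Test compounds were formulated as 10% emulsifiable concentrates, diluted in water and sprayed post-emergence at 150 g(a.i.)/ha when corn had 2 to 5 leaves, with 4 replicates on 20 m^2 plots. Control of Digitaria sanguinalis was scored on a 1-9 scale based on weed damage relative to the untreated blank area.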

Barnyard grass [3] = assay: Field test for weed control in a corn field
How it was run: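 Corn-field efficacy trial following GB/T 17980.42-2000. Test compounds were formulated as 10% emulsifiable concentrates, diluted in water and sprayed post-emergence at 150 g(a.i.)/ha when corn had 2 to 5 leaves. Each treatment was replicated 4 times on 20 m^2 plots. Barnyard grass control was rated on a 1-9 damage scale.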

Amaranthus retroflexus [4] = assay: Field test for weed control in a corn field
How it was run: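 Field efficacy trial in a corn field following GB/T 17980.42-2000. Test compounds were formulated as 10% emulsifiable concentrates, diluted in water and sprayed post-emergence when corn had 2 to 5 leaves. Each treatment covered 20 m^2 with 4 replicates. A 25% mesotrione oil dispersion served as control. Damage to Amaranthus retroflexus was rated on a 1-9 scale against untreated blank plots.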

Convolvulus arvensis = assay: Field test for weed control in a corn field
How it was run: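 Field trial of weed control against Convolvulus arvensis in corn, run following GB/T 17980.42-2000. Test agents were formulated as 10% emulsifiable concentrates and sprayed in water at 150 g(a.i.)/ha when corn plants had 2 to 5 leaves. Each treatment was replicated 4 times on 20 m^2 plots, and 25% mesotrione oil dispersion served as the control agent.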

Cyperaceae = assay: Post-emergence herbicidal activity test in a paddy field; parameters: key: level scale; higher level = more weed left vs blank control; conditions: 150 g a.i./ha (penoxsulam control 250 g(a.i.)/h)
How it was run: (§1)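 Efficacy was visually estimated 15 and 30 days after spraying, grading weed coverage relative to an untreated neighbouring plot (level 2 = 0 to 2.5%, level 9 = 67.6 to 100%). Treatments were 150 g(a.i.)/ha from 10% emulsifiable concentrates applied at the 4-5 leaf rice stage, four repeats of 50 m^2 each.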

Broadleaf weed = assay: as above; parameters: key: level scale; higher level = more weed left vs blank control; conditions: 150 g a.i./ha (penoxsulam control 250 g(a.i.)/h)
How it was run: as §1

Gramineae = assay: as above; parameters: key: level scale; higher level = more weed left vs blank control; conditions: 150 g a.i./ha (penoxsulam control 250 g(a.i.)/h)
How it was run: as §1

Digitaria sanguinalis [5] = assay: Herbicidal activity test for indoor pre-emergence soil treatment; parameters: key: 1-9 levels; higher = more weed remaining vs blank control; conditions: 150 g a.i./ha, visual inspection 21 days after treatment
How it was run: (§2)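 Pre-emergence test following NY/T 1155.3-2006: weed seeds were sown in moistened neutral sandy loam (≤2% organic matter) and covered with 0.5–2.0 cm of soil. After 24 h, the soil was sprayed with a 10% EC diluted in water at 150 g(a.i.)/ha. Damage was scored visually on a 1–9 scale at 21 days.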

Amaranthus retroflexus [6] = assay: as above; parameters: key: 1-9 levels; higher = more weed remaining vs blank control; conditions: 150 g a.i./ha, visual inspection 21 days after treatment
How it was run: as §2

Humulus scandens [7] = assay: as above; conditions: 150 g a.i./ha, visual inspection 21 days after treatment
How it was run: as §2

Piemarker [8] = assay: as above; parameters: key: level 1-9; higher = more weed remaining vs blank control; conditions: 150 g a.i./ha, visual inspection 21 days after treatment
How it was run: as §2

green bristlegrass [9] = assay: as above; parameters: key: level 1-9; higher = more weed remaining vs blank control; conditions: 150 g a.i./ha, visual inspection 21 days after treatment
How it was run: as §2

Barnyard grass [10] = assay: as above; parameters: key: level 1-9; higher = more weed remaining vs blank control; conditions: 150 g a.i./ha, visual inspection 21 days after treatment
How it was run: as §2

Piemarker [11] = assay: Herbicidal activity test for indoor post-emergence spraying on stems and leaves; parameters: key: grade level by weed remaining vs blank control, e.g. 5 = 10.1-15%; conditions: 150 g a.i./ha, visual inspection 21 days after treatment
How it was run: (§3)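 Post-emergence stem and leaf spray in an indoor test following NY/T 1155.4-2006, with weeds sown and grown in a greenhouse. Effect scored visually 21 days after treatment as graded levels, each level set by the percentage of weed remaining relative to the blank control area.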

green bristlegrass [12] = assay: as above; parameters: key: grade level by weed remaining vs blank control, e.g. 5 = 10.1-15%; conditions: 150 g a.i./ha, visual inspection 21 days after treatment
How it was run: as §3

Digitaria sanguinalis [13] = assay: as above; parameters: key: grade level by weed remaining vs blank control, e.g. 5 = 10.1-15%; conditions: 150 g a.i./ha, visual inspection 21 days after treatment
How it was run: as §3

Barnyard grass [14] = assay: as above; parameters: key: grade level by weed remaining vs blank control, e.g. 5 = 10.1-15%; conditions: 150 g a.i./ha, visual inspection 21 days after treatment
How it was run: as §3

Humulus scandens [15] = assay: as above; parameters: key: grade level by weed remaining vs blank control, e.g. 5 = 10.1-15%; conditions: 150 g a.i./ha, visual inspection 21 days after treatment
How it was run: as §3

Amaranthus retroflexus [16] = assay: as above; parameters: key: grade level by weed remaining vs blank control, e.g. 5 = 10.1-15%; conditions: 150 g a.i./ha, visual inspection 21 days after treatment
How it was run: as §3

[17] = 150 g(a.i.)/ha, 21 days after treatments
[18] = 150 g a.i./ha, 30 days after treatment

## Cc1cccc(C(=O)NCc2cc(Cl)cc(Cl)c2)c1 [Compound B08]
Green bristlegrass [1]; 150 g a.i./ha, after treatment
  Post-emergence weed control effect, Green bristlegrass: 1
Green bristlegrass [1]; [17]
  controlling effect on green bristlegrass: 1
goosegrass; 150 g a.i./ha, after treatment
  Post-emergence weed control effect, Goose grass: 1
goosegrass; [17]
  controlling effect on goosegrass: 1
Portulaca oleracea; 150 g a.i./ha, after treatment
  Post-emergence weed control effect, Portulaca oleracea: 1
Portulaca oleracea; [17]
  controlling effect on Portulaca oleracea: 1
Chenopodium album; 150 g a.i./ha, after treatment
  Post-emergence weed control effect, Chenopodium album: 1
Chenopodium album; [17]
  controlling effect on Chenopodium album: 1
Nutgrass flatsedge; 150 g a.i./ha, after treatment
  Post-emergence weed control effect, Nutgrass flatsedge: 1
Nutgrass flatsedge; [17]
  controlling effect on nutgrass flatsedge: 1
Acalypha australis; 150 g a.i./ha, after treatment
  Post-emergence weed control effect, Acalypha australis: 1
Acalypha australis; [17]
  controlling effect on Acalypha australis: 1
Solanum nigrum; [18]
  Post-emergence weed control effect, Solanum nigrum: 1
Solanum nigrum; [17]
  controlling effect on Solanum nigrum: 1
Digitaria sanguinalis [2]; 150 g a.i./ha, after treatment
  Post-emergence weed control effect, Digitaria sanguinalis: 1
Digitaria sanguinalis [2]; [17]
  controlling effect on Digitaria sanguinalis: 1
Barnyard grass [3]; [18]
  Post-emergence weed control effect, Barnyard grass: 1
Barnyard grass [3]; [17]
  controlling effect on barnyard grass: 1
Amaranthus retroflexus [4]; [18]
  Post-emergence weed control effect, Amaranthus retroflexus: 1
Amaranthus retroflexus [4]; [17]
  controlling effect on Amaranthus retroflexus: 1
Convolvulus arvensis; 150 g a.i./ha, after treatment
  Post-emergence weed control effect, Convolvulus arvensis: 1
Convolvulus arvensis; [17]
  controlling effect on Convolvulus arvensis: 1
Cyperaceae; 15 days after treatment
  Herbicidal activity 15 days after treatment Cyperaceae: 1
Cyperaceae; 30 days after treatment
  Herbicidal activity 30 days after treatment Cyperaceae: 1
Broadleaf weed; 15 days after treatment
  Herbicidal activity 15 days after treatment Broadleaf weed: 2 (equivalent to 0 to 2.5% of the weed in the blank control area)
Broadleaf weed; 30 days after treatment
  Herbicidal activity 30 days after treatment Broadleaf weed: 1
Gramineae; 15 days after treatment
  Herbicidal activity 15 days after treatment Gramineae: 2 (equivalent to 0 to 2.5% of the weed in the blank control area)
Gramineae; 30 days after treatment
  Herbicidal activity 30 days after treatment Gramineae: 2 (equivalent to 0 to 2.5% of the weed in the blank control area)
Digitaria sanguinalis [5]
  Herbicidal Activity Digitaria sanguinalis: 2 (equivalent to 0 to 2.5% of the weed in the blank control area)
Amaranthus retroflexus [6]
  Herbicidal Activity Amaranthus retroflexus: 1
Humulus scandens [7]
  Herbicidal Activity Humulus scandens: 2 (equivalent to 0 to 2.5% of the weed in the blank control area)
Piemarker [8]
  Herbicidal Activity Piemarker: 2 (equivalent to 0 to 2.5% of the weed in the blank control area)
Green bristlegrass [9]
  Herbicidal Activity Green bristlegrass: 2 (equivalent to 0 to 2.5% of the weed in the blank control area)
Barnyard grass [10]
  Herbicidal Activity Barnyard grass: 2 (equivalent to 0 to 2.5% of the weed in the blank control area)
Piemarker [11]
  Herbicidal Activity Piemarker: 1
Green bristlegrass [12]
  Herbicidal Activity Green bristlegrass: 2 (equivalent to 0 to 2.5% of the weed in the blank control area)
Digitaria sanguinalis [13]
  Herbicidal Activity Digitaria sanguinalis: 1
Barnyard grass [14]
  Herbicidal Activity Barnyard grass: 1
Humulus scandens [15]
  Herbicidal Activity Humulus scandens: 1
Amaranthus retroflexus [16]
  Herbicidal Activity Amaranthus retroflexus: 1
